In the assay the target is T1, FLT-3 (Homo sapiens, UniProt P36888).
T1 construct: 0.02% BSA and 3 nM FLT-3
T1 sequence (P36888 27-993): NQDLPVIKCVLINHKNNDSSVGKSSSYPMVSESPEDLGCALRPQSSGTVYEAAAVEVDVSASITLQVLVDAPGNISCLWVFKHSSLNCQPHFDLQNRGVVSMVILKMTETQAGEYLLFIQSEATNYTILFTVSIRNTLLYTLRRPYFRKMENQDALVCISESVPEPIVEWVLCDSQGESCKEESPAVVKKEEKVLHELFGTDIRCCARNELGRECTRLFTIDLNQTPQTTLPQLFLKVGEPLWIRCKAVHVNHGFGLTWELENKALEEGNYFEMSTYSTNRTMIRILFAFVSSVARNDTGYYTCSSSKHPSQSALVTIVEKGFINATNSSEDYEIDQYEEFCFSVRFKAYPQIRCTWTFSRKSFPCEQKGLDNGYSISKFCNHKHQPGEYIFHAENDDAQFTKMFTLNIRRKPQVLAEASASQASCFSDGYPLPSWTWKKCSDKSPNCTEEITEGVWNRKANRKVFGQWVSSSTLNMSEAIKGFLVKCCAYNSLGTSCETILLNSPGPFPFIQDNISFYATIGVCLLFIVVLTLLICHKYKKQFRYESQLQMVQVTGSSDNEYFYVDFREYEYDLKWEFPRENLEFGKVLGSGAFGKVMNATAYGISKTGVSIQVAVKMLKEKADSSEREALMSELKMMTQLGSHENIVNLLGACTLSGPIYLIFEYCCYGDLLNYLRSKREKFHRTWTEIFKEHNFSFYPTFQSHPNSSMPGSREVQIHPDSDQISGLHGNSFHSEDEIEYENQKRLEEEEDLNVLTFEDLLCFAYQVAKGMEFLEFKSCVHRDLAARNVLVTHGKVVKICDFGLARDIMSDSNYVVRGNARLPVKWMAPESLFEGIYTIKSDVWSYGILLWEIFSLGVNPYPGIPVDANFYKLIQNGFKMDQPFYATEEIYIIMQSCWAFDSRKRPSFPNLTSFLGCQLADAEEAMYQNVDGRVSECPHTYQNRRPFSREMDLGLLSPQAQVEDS
Nature of the assay: Inhibition of FLT-3, radiometric filter-binding assay. The format is biochemical. To be noted: 90 μM ATP, 0.5 mg/mL pE4Y, room temperature. The method, then: Compounds were screened for their ability to inhibit FLT-3 activity using a radiometric filter-binding assay. This assay monitors the ^33P incorporation into a substrate poly(Glu, Tyr) 4:1 (pE4Y). Reactions were carried out in a solution containing 100 mM HEPES (pH 7.5), 10 mM MgCl2, 25 mM NaCl, 1 mM DTT, 0.01% BSA and 2.5% DMSO. Final substrate concentrations in the assay were 90 μM ATP and 0.5 mg/mL pE4Y (both from Sigma Chemicals, St Louis, Mo.). The final concentration of compounds is generally between 0.01 and 5 μM. Typically, a 12-point titration was conducted by preparing serial dilutions from 10 mM DMSO stock of test compound. Reactions were carried out at room temperature.
Two assay solutions were prepared. Solution 1 contains 100 mM HEPES (pH 7.5), 10 mM MgCl2, 25 mM NaCl, 1 mg/ml pE4Y and 180 μM ATP(containing 0.3 μCi of [γ-^33P]ATP for each reaction). Solution 2 contains 100 mM HEPES (pH 7.5), 10 mM MgCl2, 25 mM NaCl, 2 mM DTT, 0.02% BSA and 3 nM FLT-3. The assay was run on a 96 well plate by mixing 50 μL each of Solution 1 and […] of the test compounds. The reaction was initiated with Solution2. After incubation for 20 minutes at room temperature, the reaction was stopped with 50 μL of 20% TCA containing 0.4 mM of ATP. All of the reaction volume was then transferred to a filter plate and washed with 5% TCA by a Harvester9600 from TOMTEC (Hamden, Conn.). The amount of ^33P incorporation into pE4y was analyzed by a Packard TopCount Microplate Scintillation Counter (Meriden, Conn.). The data was fitted using Prism software to get an IC50 or Ki.

Molecules are shown by their SMILES.

For orientation: Ki means the equilibrium dissociation constant of an inhibitor or competing ligand from its target. `CN1CCN(C(=O)[C@H]2C[C@H]2c2cnc3[nH]cc(-c4oncc4-c4cccc(F)c4F)c3c2)CC1` (relative stereo) [Compound 143, cis-(2-{3-[4-(2,3-Difluoro-phenyl)-isoxazol-5-yl]-1H-pyrrolo[2,3-b]pyridin-5-yl}-cyclopropyl)-(4-methyl-piperazin-1-yl)-methanone] gave a Ki of 200 to 1000 nM. For the compound `Fc1cccc(-c2cnoc2-c2c[nH]c3ncccc23)c1F` [Compound 1, 3-[4-(2,3-Difluoro-phenyl)-isoxazol-5-yl]-1H-pyrrolo[2,3-b]pyridine], the Ki is 200 to 1000 nM. As to `Clc1cccc(-c2cnoc2-c2c[nH]c3ncccc23)c1Cl` [Compound 2, 3-[4-(2,3-Dichloro-phenyl)-isoxazol-5-yl]-1H-pyrrolo[2,3-b]pyridine], the Ki fell in the range of 1000 to 12500 nM. Consider `Fc1cccc(Cc2cnoc2-c2c[nH]c3ncccc23)c1F` [Compound 36, 3-[4-(2,3-Difluoro-benzyl)-isoxazol-5-yl]-1H-pyrrolo[2,3-b]pyridine], for which the Ki fell in the range of 1000 to 12500 nM. Take `COc1cnc2[nH]cc(-c3oncc3-c3cccc(F)c3F)c2c1` [Compound 38, 3-[4-(2,3-Difluoro-phenyl)-isoxazol-5-yl]-5-methoxy-1H-pyrrolo[2,3-b]pyridine]: the Ki is below 200 nM. As for `Fc1c(Cl)cccc1-c1cnoc1-c1c[nH]c2ncccc12` [Compound 42, 3-[4-(3-Chloro-2-fluoro-phenyl)-isoxazol-5-yl]-1H-pyrrolo[2,3-b]pyridine], the Ki was in the range of 1000 to 12500 nM. On to `Oc1cnc2[nH]cc(-c3oncc3-c3cccc(F)c3F)c2c1` [Compound 43, 3-[4-(2,3-Difluoro-phenyl)-isoxazol-5-yl]-1H-pyrrolo[2,3-b]pyridin-5-ol], for which the Ki lay in the range of 200 to 1000 nM. As for `c1cnc2[nH]cc(-c3oncc3C3CCCCC3)c2c1` [Compound 47, 3-(4-Cyclohexyl-isoxazol-5-yl)-1H-pyrrolo[2,3-b]pyridine], the Ki was in the range of 200 to 1000 nM. The compound `Oc1cnc2[nH]cc(-c3oncc3-c3cccc(Cl)c3Cl)c2c1` [Compound 48, 3-[4-(2,3-Dichloro-phenyl)-isoxazol-5-yl]-1H-pyrrolo[2,3-b]pyridin-5-ol] had a Ki of 200 to 1000 nM.

For `COc1cnc2[nH]cc(-c3oncc3-c3cccc(Cl)c3Cl)c2c1` [Compound 49, 3-[4-(2,3-Dichloro-phenyl)-isoxazol-5-yl]-5-methoxy-1H-pyrrolo[2,3-b]pyridine], the Ki is 200 to 1000 nM. The value for `CN(C)CC#Cc1cnc2[nH]cc(-c3oncc3-c3cccc(F)c3F)c2c1` [Compound 53, (3-{3-[4-(2,3-Difluoro-phenyl)-isoxazol-5-yl]-1H-pyrrolo[2,3-b]pyridin-5-yl}-prop-2-ynyl)-dimethyl-amine] was 200 to 1000 nM.

Regarding `CN(C)c1ccnc2[nH]cc(-c3oncc3-c3cccc(F)c3F)c12` [Compound 56, {3-[4-(2,3-Difluoro-phenyl)-isoxazol-5-yl]-1H-pyrrolo[2,3-b]pyridin-4-yl}-dimethyl-amine], the Ki is 1000 to 12500 nM.

For `Fc1cccc(-c2cnoc2-c2c[nH]c3ncc(-c4ccncc4)cc23)c1F` [Compound 57, 3-[4-(2,3-Difluoro-phenyl)-isoxazol-5-yl]-5-pyridin-4-yl-1H-pyrrolo[2,3-b]pyridine], the Ki was below 200 nM.

As to `Fc1cccc(-c2cnoc2-c2c[nH]c3ncc(-c4ccccc4)cc23)c1F` [Compound 58, 3-[4-(2,3-Difluoro-phenyl)-isoxazol-5-yl]-5-phenyl-1H-pyrrolo[2,3-b]pyridine], the Ki fell in the range of 200 to 1000 nM. `Fc1cccc(-c2cnoc2-c2c[nH]c3ncc(-c4cccnc4)cc23)c1F` [Compound 59, 3-[4-(2,3-Difluoro-phenyl)-isoxazol-5-yl]-5-pyridin-3-yl-1H-pyrrolo[2,3-b]pyridine] displayed a Ki below 200 nM. Consider `CN1CCC(c2cnc3[nH]cc(-c4oncc4-c4cccc(F)c4F)c3c2)CC1` [Compound 60, 3-[4-(2,3-Difluoro-phenyl)-isoxazol-5-yl]-5-(1-methyl-piperidin-4-yl)-1H-pyrrolo[2,3-b]pyridine], for which the Ki was in the range of 1000 to 12500 nM. `CN(C)c1cccc(-c2cnc3[nH]cc(-c4oncc4-c4cccc(F)c4F)c3c2)c1` [Compound 61, (3-{3-[4-(2,3-Difluoro-phenyl)-isoxazol-5-yl]-1H-pyrrolo[2,3-b]pyridin-5-yl}-phenyl)-dimethyl-amine]: the Ki is 200 to 1000 nM.

For `Fc1cccc(-c2cnoc2-c2c[nH]c3ncc(C4CCNCC4)cc23)c1F` [Compound 62, 3-[4-(2,3-Difluoro-phenyl)-isoxazol-5-yl]-5-piperidin-4-yl-1H-pyrrolo[2,3-b]pyridine], the Ki is 200 to 1000 nM.

`CC(=O)N1CCC(c2cnc3[nH]cc(-c4oncc4-c4cccc(F)c4F)c3c2)CC1` [Compound 63, 1-(4-{3-[4-(2,3-Difluoro-phenyl)-isoxazol-5-yl]-1H-pyrrolo[2,3-b]pyridin-5-yl}-piperidin-1-yl)-ethanone] registered a Ki of 200 to 1000 nM.

For `N#CCC(=O)N1CCC(c2cnc3[nH]cc(-c4oncc4-c4cccc(F)c4F)c3c2)CC1` [Compound 64, 3-(4-{3-[4-(2,3-Difluoro-phenyl)-isoxazol-5-yl]-1H-pyrrolo[2,3-b]pyridin-5-yl}-piperidin-1-yl)-3-oxo-propionitrile], the Ki was in the range of 200 to 1000 nM. The value for `CC(=O)Nc1cccc(-c2cnc3[nH]cc(-c4oncc4-c4cccc(F)c4F)c3c2)c1` [Compound 65, N-(3-{3-[4-(2,3-Difluoro-phenyl)-isoxazol-5-yl]-1H-pyrrolo[2,3-b]pyridin-5-yl}-phenyl)-acetamide] was below 200 nM.

In the case of `C=Cc1cnc2[nH]cc(-c3oncc3-c3cccc(F)c3F)c2c1` [Compound 66, 3-[4-(2,3-Difluoro-phenyl)-isoxazol-5-yl]-5-vinyl-1H-pyrrolo[2,3-b]pyridine], the Ki was in the range of 200 to 1000 nM. In turn, `Fc1cccc(-c2cnoc2-c2c[nH]c3ncc(-c4ccc(N5CCNCC5)cc4)cc23)c1F` [Compound 68, 3-[4-(2,3-Difluoro-phenyl)-isoxazol-5-yl]-5-(4-piperazin-1-yl-phenyl)-1H-pyrrolo[2,3-b]pyridine] showed a Ki below 200 nM. In turn, `Fc1ccc(-c2cnc3[nH]cc(-c4oncc4-c4cccc(F)c4F)c3c2)cn1` [Compound 69, 3-[4-(2,3-Difluoro-phenyl)-isoxazol-5-yl]-5-(6-fluoro-pyridin-3-yl)-1H-pyrrolo[2,3-b]pyridine] displayed a Ki of 200 to 1000 nM. The value for `CN1CCN(c2ccc(-c3cnc4[nH]cc(-c5oncc5-c5cccc(F)c5F)c4c3)cc2)CC1` [Compound 70, 3-[4-(2,3-Difluoro-phenyl)-isoxazol-5-yl]-5-[4-(4-methyl-piperazin-1-yl)-phenyl]-1H-pyrrolo[2,3-b]pyridine methanesulfonate] was below 200 nM. In the case of `CN1CCN(c2ccc(-c3cnc4[nH]cc(-c5oncc5-c5cccc(F)c5F)c4c3)cn2)CC1` [Compound 71, 3-[4-(2,3-Difluoro-phenyl)-isoxazol-5-yl]-5-[6-(4-methyl-piperazin-1-yl)-pyridin-3-yl]-1H-pyrrolo[2,3-b]pyridine], the Ki is below 200 nM. The result for `CCN1CCC(c2cnc3[nH]cc(-c4oncc4-c4cccc(F)c4F)c3c2)CC1` [Compound 72, 3-[4-(2,3-Difluoro-phenyl)-isoxazol-5-yl]-5-(1-ethyl-piperidin-4-yl)-1H-pyrrolo[2,3-b]pyridine] reads 1000 to 12500 nM; that for `Fc1cccc(-c2cnoc2-c2c[nH]c3ncc(-c4ccccn4)cc23)c1F` [Compound 73, 3-(4-(2,3-Difluoro-phenyl)-isoxazol-5-yl)-5-pyridin-2-yl-1H-pyrrolo[2,3-b]pyridine], 200 to 1000 nM.

For the origin of these results see US7446199B2, “Compositions useful as inhibitors of protein kinases” (Vertex Pharmaceuticals Incorporated, priority 2003, dated 2008).
